Values of other authors in PubChem BioAssay AID493017 (Abbott Labs, 2003).

target: Platelet-derived growth factor receptor alpha (Homo sapiens) (UniProt P16234); assay: PubChem AID 493017; conditions: WOMBAT literature affinities, multiple human targets; PDGFR; gene PDGFRA; NCBI gene 5156
Sequence (P16234 whole entry, looked up): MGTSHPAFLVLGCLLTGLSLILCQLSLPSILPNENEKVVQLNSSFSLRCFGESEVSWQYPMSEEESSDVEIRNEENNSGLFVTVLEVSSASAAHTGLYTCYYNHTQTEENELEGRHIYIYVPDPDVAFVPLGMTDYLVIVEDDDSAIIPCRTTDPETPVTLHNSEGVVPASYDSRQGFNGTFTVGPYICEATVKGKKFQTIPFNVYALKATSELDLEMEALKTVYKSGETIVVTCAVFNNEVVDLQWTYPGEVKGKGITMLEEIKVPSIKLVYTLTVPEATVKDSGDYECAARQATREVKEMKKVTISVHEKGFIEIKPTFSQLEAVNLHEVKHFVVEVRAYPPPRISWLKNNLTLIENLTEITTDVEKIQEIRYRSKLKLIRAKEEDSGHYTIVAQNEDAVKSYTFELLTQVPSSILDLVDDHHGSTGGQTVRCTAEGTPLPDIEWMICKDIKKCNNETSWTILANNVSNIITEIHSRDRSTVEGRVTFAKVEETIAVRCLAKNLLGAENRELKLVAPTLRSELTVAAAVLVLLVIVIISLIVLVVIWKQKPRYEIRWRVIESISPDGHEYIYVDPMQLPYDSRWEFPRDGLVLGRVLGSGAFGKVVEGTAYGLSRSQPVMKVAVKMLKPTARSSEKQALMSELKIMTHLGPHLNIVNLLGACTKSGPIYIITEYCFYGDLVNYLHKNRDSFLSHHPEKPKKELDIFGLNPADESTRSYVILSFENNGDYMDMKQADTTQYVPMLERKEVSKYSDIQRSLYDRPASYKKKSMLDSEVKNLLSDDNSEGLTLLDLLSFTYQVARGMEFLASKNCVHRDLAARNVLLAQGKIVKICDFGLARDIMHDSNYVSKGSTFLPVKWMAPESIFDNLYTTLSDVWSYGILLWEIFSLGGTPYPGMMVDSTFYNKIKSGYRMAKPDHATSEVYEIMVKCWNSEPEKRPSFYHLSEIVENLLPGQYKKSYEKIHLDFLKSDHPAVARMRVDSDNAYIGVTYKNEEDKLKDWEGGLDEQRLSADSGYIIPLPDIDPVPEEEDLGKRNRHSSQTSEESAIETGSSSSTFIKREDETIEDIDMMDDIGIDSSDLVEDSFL

First: COc1cc2nccc(Oc3ccc(C(=O)c4ccccc4C(F)(F)F)cc3)c2cc1OC
Second: COc1cc2nccc(Oc3ccc(C(=O)c4ccc(C)cc4)cc3)c2cc1OC
The IC50 of the first is 4.2-fold higher: 7200 nM for the first, 1700 nM for the second. The second is the more potent here.

First: COc1cc2nccc(Oc3ccc(NC(=O)c4ccc(C(C)=O)cc4)cc3)c2cc1OC
Second: COc1cc2nccc(Oc3ccc(NC(=O)c4ccc(C(C)(C)C)cc4)cc3)c2cc1OC
The IC50 of the first is 72-fold higher: 3600 nM for the first, 50 nM for the second. The second is the more potent here.

Compared with `COc1cc2nccc(Oc3ccccc3)c2cc1OC`, `COc1cc2nccc(Oc3cccc(C)c3)c2cc1OC` is 9.1-fold higher in IC50: 760 nM for the first, 6900 nM for the second. The first is the more potent here.

First: COc1cc2nccc(Oc3cccc(OC)c3OC)c2cc1OC
Second: COc1cccc(Oc2ccnc3cc(OC)c(OC)cc23)c1
The IC50 of the first is 10-fold higher: 4400 nM for the first, 440 nM for the second. The second is the more potent here.

Going from `COc1cc2nccc(Oc3ccc(C(C)=O)cc3)c2cc1OC` to `CCCCc1ccc(C(=O)c2ccc(Oc3ccnc4cc(OC)c(OC)cc34)cc2)cc1`, the IC50 falls from 15000 nM to 150 nM (100-fold).

First: COc1cc2nccc(Oc3ccccc3C(=O)c3ccccc3)c2cc1OC
Second: COc1cc2nccc(Oc3ccc(N(C)C(=O)c4ccc(C(C)(C)C)cc4)cc3)c2cc1OC
The IC50 of the first is 150-fold higher: 48000 nM for the first, 330 nM for the second. The second is the more potent here.
